Results taken from ChEMBL document CHEMBL1201862, “PubChem BioAssay data set” (2004).
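48-hour exposure; five concentrations; linearly interpolated endpoints. GI50 = concentration required for 50% inhibition of growth.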 Active and inactive are the calls of the source. Cut-off read from the data, not from the text of the source: active = GI50 up to about 1.1 µM and inactive = higher.

How the values were obtained:
Test in all cases: DTP human tumour cell line panel, 48 h
[1] = system: T47D
[2] = system: HL-60
[3] = system: RPMI-8226
[4] = system: ACHN
[5] = system: OVCAR-4
[6] = system: OVCAR-8
[7] = system: 786-0
[8] = system: HOP-62
[9] = system: COLO 205
[10] = system: CCRF-CEM
[11] = system: MDA-N
[12] = system: UO-31
[13] = system: SK-MEL-2
[14] = system: DU-145
[15] = system: LOX IMVI
[16] = system: HOP-92
[17] = system: K562
[18] = system: SK-MEL-5
[19] = system: PC-3
[20] = system: OVCAR-3

Row | SMILES | GI50 [1] | GI50 [2] | GI50 [3] | GI50 [4] | GI50 [5] | GI50 [6] | GI50 [7] | GI50 [8] | GI50 [9] | GI50 [10] | GI50 [11] | GI50 [12] | GI50 [13] | GI50 [14] | GI50 [15] | GI50 [16] | GI50 [17] | GI50 [18] | GI50 [19] | GI50 [20]
1 | CCOC(=O)C(Cc1ccc(N(CCCl)CCCl)cc1)NC(=O)C(Cc1ccccc1)NC(C)=O (stereo not given) | 0.157 µM (active) | 0.0908 µM (active) | 0.0655 µM (active) | 0.0255 µM (active) | 0.0159 µM (active) | > 0.322 µM (active) | 0.184 µM (active) | 0.275 µM (active) | 0.213 µM (active) | 0.0353 µM (active) | > 0.262 µM (active) | 0.106 µM (active) | > 0.265 µM (active) | > 0.582 µM (active) | 0.111 µM (active) | 0.621 µM (active) | > 0.279 µM (active) | 0.248 µM (active) | > 0.254 µM (active) | 0.173 µM (active)
2 | Oc1ncc(N(CCCl)CCCl)c(O)n1 [URACIL MUSTARD] | 12.9 µM (inactive) | 1.43 µM (inactive) | 41.6 µM (inactive) | 2.67 µM (inactive) | 83 µM (inactive) | 42.2 µM (inactive) | 10 µM (inactive) | 15 µM (inactive) | 63 µM (inactive) | 2.1 µM (inactive) | 60.4 µM (inactive) | 47.3 µM (inactive) | > 97.3 µM (inactive) | 22.3 µM (inactive) | 14.1 µM (inactive) | 23.8 µM (inactive) | 42.5 µM (inactive) | 41.8 µM (inactive) | 57.3 µM (inactive) | 74.6 µM (inactive)
3 | CC(CC(=O)O)C(C(=O)O)C(=O)O (stereo not given) | > 100 µM (inactive) | > 100 µM (inactive) | > 100 µM (inactive) | > 100 µM (inactive) | > 100 µM (inactive) | > 100 µM (inactive) | > 100 µM (inactive) | > 100 µM (inactive) | > 100 µM (inactive) | > 100 µM (inactive) | > 100 µM (inactive) | > 100 µM (inactive) | > 100 µM (inactive) | > 100 µM (inactive) | > 100 µM (inactive) | > 100 µM (inactive) | > 100 µM (inactive) | > 100 µM (inactive) | > 100 µM (inactive) | > 100 µM (inactive)
4 | CCOC(=O)C(=O)/C(=C/n1c(=S)[nH]c2ccc([N+](=O)[O-])cc21)C(=O)OCC | > 100 µM (inactive) | > 100 µM (inactive) | > 100 µM (inactive) | > 100 µM (inactive) | > 100 µM (inactive) | > 100 µM (inactive) | > 100 µM (inactive) | > 100 µM (inactive) | > 100 µM (inactive) | > 100 µM (inactive) | > 100 µM (inactive) | > 100 µM (inactive) | > 100 µM (inactive) | > 100 µM (inactive) | > 100 µM (inactive) | > 100 µM (inactive) | > 100 µM (inactive) | 65.5 µM (inactive) | > 100 µM (inactive) | > 100 µM (inactive)
